Laboratory results reported in patent US10081632B2, “Substituted tetrahydropyrido[3′,2′:4,5]pyrrolo[1,2-α]pyrazine-2-carboxamides as RSK inhibitors” (Phoenix Molecular Designs, priority 2016, dated 2018).
“Also recorded” adds a separate entry of the source. One block for each compound: values may come before it.

Tests used:
[1] = Solubility assessment, 20 mg/ml solution; format: physicochemical; conditions: for Solubility, 20 mg/ml Solution: 100 mM in DMSO diluted in DMEM growth media to 20 mg/ml
Method: Solubility is an important property for therapeutic drug candidates. Poor solubility can lead to low bioavailability resulting in suboptimal drug delivery. It can also prevent the evaluation of test agents in animals because the concentration(s) needed to achieve the desired effect cannot be achieved to poor solubility. For solubility assessments, small molecules targeting RSK were compared. For these assessments, 100 mM solutions of the compounds dissolved in DMSO were diluted in DMEM growth media (Life Technologies) supplemented with fetal bovine serum (FBS, Life Technologies) and 100 units/ml penicillin and 100 units/ml streptomycin (Life Technologies) to make 20 mg/ml solutions. Once diluted, the solutions were vortexed and examined for the formation of precipitates. […] For Compound 26, a 100 mM solution of the compound dissolved in DMSO was diluted in phosphate buffered saline (Life Technologies) to make a 20 mg/ml solution. The stock of […] was chosen because this is the upper end of what would be required to dose mice for a range of studies including MTD, PK, PD and efficacy. The pH of this solution was determined to be 2, as previously described. […] At high concentrations some RSK inhibitors were highly soluble while others were not. Compound 0 is (R)—N-(1-benzyl-1H-pyrazol-4-yl)-9-methyl-6-oxo-6,7,8,9-tetrahydropyrido[3′,2′:4,5]pyrrolo[1,2-a]pyrazine-2-carboxamide. Compound 0 was not soluble, whereas Compounds 18, 20, 21, 25 and 26 were soluble under the same conditions (Table 5).

MDA-MB-231 cells [2] = test: Soft agar growth inhibition assay; format: cell-based; conditions: Homo sapiens, MDA-MB-231; growth in soft agar (SA); read-out: MDA-MB-231 IC50 (SA)
CD34+ cells = test: Colony forming unit hematopoietic stem cell assay; format: cell-based, human
Method: The hematopoietic colony forming cell assay was conducted based on a protocol outlined by StemCell Technologies. […] Following the addition of CD34^+ cells isolated from human cord blood or peripheral blood (StemCell Technologies) at a final concentration of 5×10^2 cells per dish, the tubes were vortexed and allowed to stand for 5 minutes at room temperature. Next, the MethoCult mixtures were dispensed into 35 mm dishes (Corning Incorporated) through blunt end needles (StemCell Technologies) and 5 ml syringes (BD Biosciences) at a volume of 1.1 ml per dish. The medium was evenly distributed across the surface of each dish by gentle tilting and rotation. The dishes were then placed in a 100 mm culture dish (Grenier Bio-One) containing additional 35 mm dishes with sterile water to maintain humidity. […] The number of myeloid and erythroid derived colonies in both the treated and control dishes were counted and compared.

RSK2 = RSK2 (Homo sapiens (Human), UniProt P51812); test: Radioisotope kinase assay (SignalChem), RSK2; format: biochemical; conditions: 33P-ATP, 30° C., 15 minutes
Method: The assay conditions for the RSK2 kinase target were optimized to yield acceptable enzymatic activity. In addition, the assays were optimized to give high signal-to-noise ratio.
Radioisotope assays (SignalChem) were performed for the evaluation of the kinase target profiling and all assays were performed in a designated radioactive working area. The kinase targets were RSK1, RSK2, RSK3, RSK4 and MK2.
The assay was initiated by the addition of ^33P-ATP and the reaction mixture incubated at 30° C. for 15 minutes. After the incubation period, the assay was terminated by spotting 10 μL of the reaction mixture onto Multiscreen phosphocellulose P81 plate. The Multiscreen phosphocellulose P81 plate was washed 3 times for approximately 15 minutes each in a 1% phosphoric acid solution. The radioactivity on the P81 plate was counted in the presence of scintillation fluid in a Trilux scintillation counter.
Blank controls were set up for each target kinase which included all the assay components except the addition of the appropriate substrate (which was replaced with equal volume of assay dilution buffer). The corrected activity for each target kinase was determined by removing the blank control value.

4T1 cells [3] = test: Monolayer growth inhibition, Alamar blue assay; format: cell-based; conditions: Mus musculus; 4T1 (TNBC), 5 days, single dose on day 1
From the text: (§1) In all instances a single dose was given on day 1 of the experiment.

HCC1143 cells [4] = test: Monolayer growth inhibition, Alamar blue assay; format: cell-based; conditions: Homo sapiens; HCC1143 (TNBC), 5 days, single dose on day 1
From the text: as §1

HCC1937 cells [5] = test: Monolayer growth inhibition, Alamar blue assay; format: cell-based; conditions: Homo sapiens; HCC1937 (TNBC, BRCA Mutant), 5 days, single dose on day 1
From the text: as §1

JIMT-1 cells [6] = test: Monolayer growth inhibition, Alamar blue assay; format: cell-based; conditions: Homo sapiens; JIMT-1 (HER2), 5 days, single dose on day 1
From the text: as §1

MDA-MB-231 cells [7] = test: Monolayer growth inhibition, Alamar blue assay; format: cell-based; conditions: Homo sapiens; MDA-MB-231 (TNBC), 5 days, single dose on day 1
From the text: as §1

MDA-MB-435 cells [8] = test: Monolayer growth inhibition, Alamar blue assay; format: cell-based; conditions: Homo sapiens; MDA-MB-435 (Melanoma), 5 days, single dose on day 1
From the text: as §1

MDA-MB-468 cells [9] = test: Monolayer growth inhibition, Alamar blue assay; format: cell-based; conditions: Homo sapiens; MDA-MB-468 (TNBC), 5 days, single dose on day 1
From the text: as §1

PC3 cells [10] = test: Monolayer growth inhibition, Alamar blue assay; format: cell-based; conditions: Homo sapiens, PC-3; PC3 (Prostate), 5 days, single dose on day 1
From the text: as §1

SUM149 cells [11] = test: Monolayer growth inhibition, Alamar blue assay; format: cell-based; conditions: Homo sapiens; SUM149 (TNBC, BRCA Mutant), 5 days, single dose on day 1
From the text: as §1

SUM149-PTXR cells [12] = test: Monolayer growth inhibition, Alamar blue assay; format: cell-based, Human; conditions: Homo sapiens; SUM149-PTXR (TNBC, BRCA Mutant), 5 days, single dose on day 1
From the text: as §1

T47D cells [13] = test: Monolayer growth inhibition, Alamar blue assay; format: cell-based, Human; conditions: Homo sapiens; T47D (ER/PR), 5 days, single dose on day 1
From the text: as §1

HCC1937 cells [14] = test: Monolayer growth inhibition, crystal violet assay; format: cell-based; conditions: Homo sapiens; HCC1937 (TNBC, BRCA Mutant), 5 days, single dose on day 1
From the text: (§2) In all instances a single dose was given on day 1 of the experiment. […] Complete (100%) growth suppression was achievable with several of the compounds in multiple different cell lines.

JIMT-1 cells [15] = test: Monolayer growth inhibition, crystal violet assay; format: cell-based; conditions: Homo sapiens; JIMT-1 (HER2), 5 days, single dose on day 1
From the text: as §2

MDA-MB-468 cells [16] = test: Monolayer growth inhibition, crystal violet assay; format: cell-based; conditions: Homo sapiens; MDA-MB-468 (TNBC), 5 days, single dose on day 1
From the text: as §2

T47D cells [17] = test: Monolayer growth inhibition, crystal violet assay; format: cell-based; conditions: Homo sapiens; T47D (ER/PR), 5 days, single dose on day 1
From the text: as §2

4T1 cells [18] = test: Monolayer growth inhibition, crystal violet assay; format: cell-based; conditions: Mus musculus; 4T1 (TNBC), 5 days, single dose on day 1
From the text: as §1

HCC1143 cells [19] = test: Monolayer growth inhibition, crystal violet assay; format: cell-based; conditions: Homo sapiens; HCC1143 (TNBC), 5 days, single dose on day 1
From the text: as §1

MDA-MB-231 cells [20] = test: Monolayer growth inhibition, crystal violet assay; format: cell-based; conditions: Homo sapiens; MDA-MB-231 (TNBC), 5 days, single dose on day 1
From the text: as §1

MDA-MB-435 cells [21] = test: Monolayer growth inhibition, crystal violet assay; format: cell-based; conditions: Homo sapiens; MDA-MB-435 (Melanoma), 5 days, single dose on day 1
From the text: as §1

PC3 cells [22] = test: Monolayer growth inhibition, crystal violet assay; format: cell-based; conditions: Homo sapiens, PC-3; PC3 (Prostate), 5 days, single dose on day 1
From the text: as §1

SUM149 cells [23] = test: Monolayer growth inhibition, crystal violet assay; format: cell-based; conditions: Homo sapiens; SUM149 (TNBC, BRCA Mutant), 5 days, single dose on day 1
From the text: as §1

SUM149-PTXR cells [24] = test: Monolayer growth inhibition, crystal violet assay; format: cell-based; conditions: Homo sapiens; SUM149-PTXR (TNBC, BRCA Mutant), 5 days, single dose on day 1
From the text: as §1

RSK2, sequence (P51812 whole entry): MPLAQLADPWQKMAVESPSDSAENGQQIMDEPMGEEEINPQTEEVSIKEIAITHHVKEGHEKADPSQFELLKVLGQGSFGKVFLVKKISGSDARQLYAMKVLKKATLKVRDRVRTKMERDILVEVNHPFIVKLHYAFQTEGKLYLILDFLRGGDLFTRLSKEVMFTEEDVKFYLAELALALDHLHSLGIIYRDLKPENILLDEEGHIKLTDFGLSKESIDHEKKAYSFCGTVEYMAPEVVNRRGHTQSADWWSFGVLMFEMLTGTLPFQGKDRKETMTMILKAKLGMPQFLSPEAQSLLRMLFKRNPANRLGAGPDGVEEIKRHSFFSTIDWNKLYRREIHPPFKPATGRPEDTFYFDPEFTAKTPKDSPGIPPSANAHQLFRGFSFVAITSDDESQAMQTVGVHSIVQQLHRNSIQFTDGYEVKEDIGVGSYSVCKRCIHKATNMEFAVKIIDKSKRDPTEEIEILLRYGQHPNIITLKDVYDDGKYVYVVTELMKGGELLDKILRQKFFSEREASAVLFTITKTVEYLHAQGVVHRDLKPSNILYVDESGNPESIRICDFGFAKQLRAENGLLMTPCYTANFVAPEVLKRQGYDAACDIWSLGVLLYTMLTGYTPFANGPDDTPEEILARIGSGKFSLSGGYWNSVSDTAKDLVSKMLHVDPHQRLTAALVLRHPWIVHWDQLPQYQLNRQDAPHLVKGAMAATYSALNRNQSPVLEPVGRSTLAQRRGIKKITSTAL

IC50 (MDA-MB-231 cells [2]): 0.2 µM | IC50 (CD34+ cells; Homo sapiens, Hematopoietic stem cell, CD34+ cells from peripheral blood, read-out: CD34+ (PB) IC50): 10 µM
SMILES: C[C@@H]1CNC(=O)c2cc3ccc(C(=O)Nc4cnn(Cc5ccccc5)c4)nc3n21 [Compound 0, (R)—N-(1-benzyl-1H-pyrazol-4-yl)-9-methyl-6-oxo-6,7,8,9-tetrahydropyrido[3′,2′:4,5]pyrrolo[1,2-a]pyrazine-2-carboxamide, reference compound]
Solubility, 20 mg/ml Solution [1]: not soluble; also recorded: poor or nonexistent solubility; also recorded: Precipitate | Therapeutic Window (CD34+ cells; ratio IC50 against CD34+ cells and MDA-MB-231 cells (SA)): 50X

IC50 (RSK2): > 10 µM
SMILES: O=C(Nc1ccc2[nH]cc(CN3CCOCC3)c2c1)c1cnn(Cc2ccccc2)c1 [Compound 1, 1-Benzyl-N-(3-(morpholinomethyl)-1H-indol-5-yl)-1H-pyrazole-4-carboxamide]

IC50 (RSK2): > 10 µM
SMILES: O=C(Nc1ccc2c(CN3CCOCC3)c[nH]c2c1)c1cnn(Cc2ccccc2)c1 [Compound 2, 1-Benzyl-N-(3-(morpholinomethyl)-1H-indol-6-yl)-1H-pyrazole-4-carboxamide]

IC50 (RSK2): > 10 µM
SMILES: CN1CCN(Cc2c[nH]c3ccc(NC(=O)c4cnn(Cc5ccccc5)c4)cc23)CC1 [Compound 3, 1-Benzyl-N-(3-((4-methylpiperazin-1-yl)methyl)-1H-indol-5-yl)-1H-pyrazole-4-carboxamide]

IC50 (RSK2): > 10 µM
SMILES: CN1CCN(Cc2c[nH]c3cc(NC(=O)c4cnn(Cc5ccccc5)c4)ccc23)CC1 [Compound 4, 1-Benzyl-N-(3-((4-methylpiperazin-1-yl)methyl)-1H-indol-6-yl)-1H-pyrazole-4-carboxamide]

IC50 (RSK2): > 10 µM
SMILES: O=C(Nc1ccc2scc(CN3CCOCC3)c2c1)c1cnn(Cc2ccccc2)c1 [Compound 5, 1-Benzyl-N-(3-(morpholinomethyl)benzo[b]thiophen-5-yl)-1H-pyrazole-4-carboxamide]

IC50 (RSK2): > 10 µM
SMILES: O=C(Nc1ccc2scc(CN3CCNCC3)c2c1)c1cnn(Cc2ccccc2)c1 [Compound 6, 1-Benzyl-N-(3-(piperazin-1-ylmethyl)benzo[b]thiophen-5-yl)-1H-pyrazole-4-carboxamide]

IC50 (RSK2): > 10 µM
SMILES: O=C(Nc1ccc2c(CN3CCOCC3)coc2c1)c1cnn(Cc2ccccc2)c1 [Compound 7, 1-benzyl-N-(3-(morpholinomethyl)benzofuran-6-yl)-1H-pyrazole-4-carboxamide]

IC50 (RSK2): > 10 µM
SMILES: O=C(Nc1ccc2occ(CN3CCOCC3)c2c1)c1cnn(Cc2ccccc2)c1 [Compound 8, 1-benzyl-N-(3-(morpholinomethyl)benzofuran-5-yl)-1H-pyrazole-4-carboxamide]

IC50 (RSK2): > 10 µM
SMILES: O=C(Nc1ccc2occ(CN3CCNCC3)c2c1)c1cnn(Cc2ccccc2)c1 [Compound 9, 1-benzyl-N-(3-(piperazin-1-ylmethyl)benzofuran-5-yl)-1H-pyrazole-4-carboxamide]

IC50 (RSK2): > 1 µM
SMILES: O=C(Nc1ccc2c(CN3CCNCC3)coc2c1)c1cnn(Cc2ccccc2)c1 [Compound 10, 1-benzyl-N-(3-(piperazin-1-ylmethyl)benzofuran-6-yl)-1H-pyrazole-4-carboxamide]

IC50 (4T1 cells [3]): 48.5 ± 2.6 µM | IC50 (HCC1143 cells [4]): > 50 µM | IC50 (HCC1937 cells [5]): > 50 µM | IC50 (MDA-MB-231 cells [7]): > 50 µM | IC50 (MDA-MB-435 cells [8]): 24.6 ± 10.3 µM | IC50 (MDA-MB-468 cells [9]): > 50 µM | IC50 (PC3 cells [10]): 44.9 ± 8.8 µM | IC50 (T47D cells [13]): 48.1 ± 3.3 µM | IC50 (HCC1937 cells [14]): > 50 µM | IC50 (MDA-MB-468 cells [16]): 37.3 ± 2.3 µM | IC50 (T47D cells [17]): 30.1 ± 3.3 µM | IC50 (4T1 cells [18]): 39.5 ± 9.4 µM | IC50 (HCC1143 cells [19]): > 50 µM | IC50 (MDA-MB-231 cells [20]): 45 ± 8.7 µM | IC50 (MDA-MB-435 cells [21]): 17.9 ± 7.3 µM | IC50 (PC3 cells [22]): 45.6 ± 4.8 µM
SMILES: C[C@@H]1CNC(=O)c2cc3ccc(NC(=O)c4cnn(Cc5ccccc5)c4)cc3n21 [Compound 11, (R)-1-benzyl-N-(4-methyl-1-oxo-1,2,3,4-tetrahydropyrazino[1,2-a]indol-7-yl)-1H-pyrazole-4-carboxamide]
IC50 (JIMT-1 cells [6]): > 50 µM | IC50 (SUM149 cells [11]): 36 ± 12.8 µM | IC50 (SUM149-PTXR cells [12]): 36.4 ± 11.9 µM | IC50 (JIMT-1 cells [15]): > 50 µM | IC50 (SUM149 cells [23]): 33.6 ± 14.5 µM | IC50 (SUM149-PTXR cells [24]): 44.6 ± 3.9 µM

SMILES: O=C(Nc1ccc2cc3n(c2c1)CCNC3=O)c1cnn(Cc2ccccc2)c1 [Compound 12, 1-benzyl-N-(1-oxo-1,2,3,4-tetrahydropyrazino[1,2-a]indol-7-yl)-1H-pyrazole-4-carboxamide]
IC50 (RSK2): > 1 µM

SMILES: CN1CCc2oc3ccc(NC(=O)c4cnn(Cc5ccccc5)c4)cc3c2C1 [Compound 13, 1-benzyl-N-(2-methyl-1,2,3,4-tetrahydrobenzofuro[3,2-c]pyridin-8-yl)-1H-pyrazole-4-carboxamide]
IC50 (RSK2): > 1 µM

SMILES: CN1CCc2[nH]c3ccc(NC(=O)c4cnn(Cc5ccccc5)c4)cc3c2C1 [Compound 14, 1-benzyl-N-(2-methyl-2,3,4,5-tetrahydro-1H-pyrido[4,3-b]indol-8-yl)-1H-pyrazole-4-carboxamide]
IC50 (RSK2): > 1 µM

Solubility, 20 mg/ml Solution [1]: Soluble | pH of 20 mg/ml solution ([1]; DMSO stock diluted in DMEM, pH test strips): 8
SMILES: C[C@@H]1CNC(=O)c2cc3ccc(C(=O)Nc4cnn(CC5CCN(C)CC5)c4)nc3n21 [Compound 20, (R)-9-methyl-N-(1-((1-methylpiperidin-4-yl)methyl)-1H-pyrazol-4-yl)-6-oxo-6,7,8,9-tetrahydropyrido[3′,2′:4,5]pyrrolo[1,2-a]pyrazine-2-carboxamide]
